For orientation: melting point means the temperature, or range, at which the solid turns liquid.

Data set [1] relates to human colon cancer cells HT29. As to the kind of experiment: MTT assay, survival/growth of cultured human colon cancer cells HT29. In kind it is cell-based. The note with it: for IC50: read-out: concentration needed for 50% growth inhibition (ID50), Table 3, HT-29. On the procedure: (§1) As shown in Table 3 and FIGS. 1–32, several novel conformationally restricted polyamine analogs were tested for anti-proliferative properties against cancer cells.
(§2) Human breast cancer cell line MCF7 was grown in Richter's Improved Modified Eagle's Medium supplemented with 10% fetal bovine serum (FBS) and 2.2 g/L sodium bicarbonate. Human brain tumor cell line U251 MG-NCI was grown in Dulbecco's Modified Eagle's Medium supplemented with 10% FBS. Human lung cancer cell line A549 was grown in Ham's F-12K medium (Cellgro, Mediatech, Inc., VA), supplemented with 10% FBS and 2 mM L-glutamine. Human colon cancer cell line HT29 was cultured in McCoy's 5A medium (Gibco, BRL, Gaithersburg, Md.) supplemented with 10% FBS. Human prostate cancer cell lines PC-3, LNCAP and DuPro were grown in RPMI 1640 Medium (Cellgro, Mediatech, Inc., VA) supplemented with 10% FBS. Another human prostate cancer cell line DU145 was grown in Dulbecco's Modified Eagle's Medium (Gibco, BRL, Gaithersburg, Md.) supplemented with 5% FBS. The A549, MCF7, PC3, LNCAP and DuPro cell lines were cultured in 100 units/mL penicillin and 100 μg/mL streptomycin. HT29 and U251MG cell lines were grown in 50 μg/mL gentamycin (Gibco, BRL, Gaithersburg, Md.). DU145 cell line was maintained in 1% antibitic-antimycotic solution (Sigma, St. Louis, Mo.). The cell cultures were maintained at 37° C. in 5% CO2/95% humidified air. DuPro cells were obtained from M. Eileen Dolan, University of Chicago. All other cells are available from the American Type Culture Collection, Rockville, Md.
(§3) A conventional MTT assay was used to evaluate percent cell survival. Exponentially growing monolayer cells were plated in 96-well plates at a density of 500 cells per well and allowed to grow for 24 hours. Serial dilutions of the drugs were added to the wells. Six days after drug treatment, 25 μl of MTT solution (5 mg/ml) was added to each well and incubated for 4 hours at 37° C. Then 100 μl of lysis buffer (20% sodium dodecyl sulfate, 50% DMF, and 0.8% acetic acid, pH 4.7) was added to each well and incubated for an additional 22 hours. A microplate reader (“EMAX”-brand, Molecular Devices, Sunnyvale, Calif.) set at 570 nm was used to determine the optical density of the cultures. Results are expressed as a ratio of the optical density in drug-treated wells to the optical density in wells treated with vehicle only.

Data set [2] has as its system human lung cancer cells A549. Put plainly: MTT assay, survival/growth of cultured human lung cancer cells A549. To be noted: for EC50: figure legends, survival of cultured A549 cells, MTT, six days after drug treatment, read-out: ED50 (the source's name); for IC50: read-out: concentration needed for 50% growth inhibition (ID50); for IC50 / concentration needed for 50% growth inhibition (ID50): Table 3, A549. In kind it is cell-based. On the procedure:
as §1, §2, §3

The subject of data set [3] is human prostate cancer cells LNCAP. Put plainly: MTT assay, survival/growth of cultured human prostate cancer cells LNCAP. In kind it is cell-based. To be noted: figure legends, survival of cultured LNCAP cells, six days after drug treatment, read-out: ED50 (the source's name). On the procedure:
as §2, §3
(§4) Using the protocols of Example 2, the porphyrin-polyamine conjugates were tested for activity in vitro in various cancer cell lines.

For data set [4], the system named is human breast cancer cells MCF7. Put plainly: MTT assay, survival/growth of cultured human breast cancer cells MCF7. The note with it: for EC50: figure legends, survival of cultured MCF7 cells, MTT, six days after drug treatment, read-out: ED50 (the source's name); for IC50: read-out: concentration needed for 50% growth inhibition (ID50), Table 3, MCF7. In kind it is cell-based. The method, then: as §1, §2, §3

Data set [5] deals with human prostate cancer cells DU145. As to the kind of experiment: MTT assay, survival/growth of cultured human prostate cancer cells DU145. Type of data set: cell-based. To be noted: for EC50: figure legends, survival of cultured DU145 cells, MTT, six days after drug treatment, read-out: ED50 (the source's name); for IC50: read-out: concentration needed for 50% growth inhibition (ID50), Table 3, DU-145. On the procedure: as §2, §3, §4
For orientation: Tetrazolium assays rely on reduction of a dye to a coloured formazan, in cell work by metabolically active cells.

Data set [6] deals with human prostate cancer cells DUPRO. Put plainly: MTT assay, survival/growth of cultured human prostate cancer cells DUPRO. Type of data set: cell-based. The note with it: for EC50: figure legends, survival of cultured DUPRO cells, MTT, six days after drug treatment, read-out: ED50 (the source's name); for IC50: read-out: concentration needed for 50% growth inhibition (ID50), Table 3, DUPRO. On the procedure: as §2, §3, §4

Data set [7] deals with human prostate cancer cells PC3. As to the kind of experiment: MTT assay, survival/growth of cultured human prostate cancer cells PC3. The note with it: for EC50: figure legends, survival of cultured PC3 cells, MTT, six days after drug treatment, read-out: ED50 (the source's name); for IC50: read-out: concentration needed for 50% growth inhibition (ID50), Table 3, PC-3. In kind it is cell-based. On the procedure: as §2, §3, §4

For data set [8], the system named is human brain tumor cells U251 MG NCI. As to the kind of experiment: MTT assay, survival/growth of cultured human brain tumor cells U251 MG NCI. Type of data set: cell-based. To be noted: for EC50: figure legends, survival of cultured U251 MG NCI cells, MTT, six days after drug treatment, read-out: ED50 (the source's name); for IC50: read-out: concentration needed for 50% growth inhibition (ID50), Table 3, U251MG. The method, then: as §2, §3

Structures can show the parent of a compound that is named as a salt. Where two headings read alike, the source gives them in different places.

Consider `CCNCCCCNCCCCNCCCCNCCCC1=C(C)c2cc3[nH]c(cc4nc(cc5[nH]c(cc1n2)c(CCCNCCCCNCCCCNCCCCNCC)c5C)C(CC)=C4C)c(CC)c3C` (as salt: hydrochloride) [SL-11202], for which the melting point was found to be 200 °C.

For `CCNCCCCNCCCCNCCCCNCCCCNCC` [BE-4444, 1,19-bis(ethylamino)-5,10,15-triazanonadecane, reference compound], the EC50 was 500 nM in data set [1] (Homo sapiens, HT-29, 144 h, figure legends, survival of cultured HT29 cells, MTT, six days after drug treatment, read-out: ED50 (the source's name)); greater than 31200 nM in [2] (Homo sapiens, 144 h); 140 nM in [3] (Homo sapiens, 144 h); greater than 31200 nM in [4] (Homo sapiens, 144 h); 70 nM in data set [5] (Homo sapiens, DU-145, 144 h); 200 nM in [6] (Homo sapiens, 144 h). In addition, in [7] (Homo sapiens, PC-3, 144 h), the EC50 is 600 nM. The IC50 in [1] (Homo sapiens) is 800 nM; in data set [2] (Homo sapiens), 400 nM; in data set [4] (Homo sapiens) it was greater than 31200 nM; in [5] (Homo sapiens), 70 nM; in data set [6] (Homo sapiens) it was 200 nM; in data set [7] (Homo sapiens), 540 nM.

As for `CCNCCCCNCC1CC1CNCCCCNCC` (centres unmarked) [SL-11093], the IC50 in data set [1] worked out at 400 nM; in [2] it was 260 nM; in [4] it was 660 nM; in data set [5], 10 nM; in data set [6], 60 nM; in [7] it was 14300 nM. Further, the EC50 in [2] is 260 nM; in data set [3], 210 nM; in data set [4], 660 nM; in data set [5], 16 nM; in [8] it was 70 nM; in data set [7], 1600 nM.

As to `CCNCCCCNCC1CC1CNCCCCNCC` (centres unmarked) [SL-11098], the IC50 in data set [1] was 400 nM; in data set [4], greater than 31200 nM; in [5], 18 nM; in data set [8] it was 100 nM; in data set [6], 80 nM; in [7], 1400 nM. In addition, the “concentration needed for 50% growth inhibition (ID50)” value in [2] was determined as 510 nM. Also, the EC50 in data set [2] is 290 nM; in [3] it was 170 nM; in data set [5], 20 nM; in data set [8], 100 nM; in [7], 1400 nM.

As for `CCNCCCCNCC1CCC1CNCCCCNCC` (centres unmarked) [SL-11099], the IC50 stood at 1000 nM in [1]; 26300 nM in data set [4]; 14 nM in [5]; 110 nM in [8]; 80 nM in [6]; 2500 nM in data set [7]. The “concentration needed for 50% growth inhibition (ID50)” value in [2] is 650 nM. For the same molecule, the EC50 in data set [2] stood at 510 nM; in data set [3], 210 nM; in data set [4], 26300 nM; in data set [5] it was 14 nM; in [8], 110 nM; in [6], 80 nM. For the same molecule, the EC50 in [7] stood at 2500 nM.

For the molecule `CCNCCCCNCC1CCC1CNCCCCNCC` (centres unmarked) [SL-11100], the IC50 is 2000 nM in data set [1]; greater than 31200 nM in data set [4]; 21 nM in data set [5]; 220 nM in data set [8]; 290 nM in data set [6]; 4700 nM in [7]. Moreover, the “concentration needed for 50% growth inhibition (ID50)” value in data set [2] was found to be 2200 nM. Moreover, the EC50 in data set [2] came to 650 nM; in data set [3], 700 nM; in data set [5], 21 nM; in [8], 220 nM; in [6], 300 nM; in [7], 4700 nM.

Take `CCNC/C=C\CNC/C=C\CNC/C=C\CNCC` [SL-11108]: the IC50 is 2000 nM in data set [1]; greater than 31200 nM in data set [4]; 130 nM in data set [5]; 2000 nM in data set [8]; 980 nM in data set [6]; 2200 nM in [7]. In addition, the “concentration needed for 50% growth inhibition (ID50)” value in data set [2] is greater than 31250 nM. For the same molecule, the EC50 in data set [3] worked out at 7700 nM; in [5], 130 nM; in data set [8] it was 2000 nM; in data set [6], 980 nM; in data set [7], 2200 nM.

Turning to `CCNC/C=C\CNCCCCNCCCCNCCCCNCC` [SL-11121], the IC50 is 800 nM in data set [1] (Homo sapiens); greater than 31200 nM in [2] (Homo sapiens); 17000 nM in data set [4] (Homo sapiens); 80 nM in data set [5] (Homo sapiens); 400 nM in data set [6] (Homo sapiens); 520 nM in data set [7] (Homo sapiens). Moreover, the EC50 in [2] (Homo sapiens, 144 h) was greater than 31200 nM; in [3] (Homo sapiens, 144 h), 140 nM; in data set [4] (Homo sapiens, 144 h) it was 17000 nM; in data set [5] (Homo sapiens, DU-145, 144 h), 80 nM; in data set [6] (Homo sapiens, 144 h) it was 400 nM; in data set [7] (Homo sapiens, PC-3, 144 h) it was 520 nM.

Consider `CCNC/C=C\CNC/C=C\CNC/C=C\CNC/C=C\CNCC` [SL-11126], for which the IC50 is 1500 nM in data set [1] (Homo sapiens); greater than 31200 nM in data set [2] (Homo sapiens); 700 nM in [4] (Homo sapiens); 510 nM in [5] (Homo sapiens); 1100 nM in [6] (Homo sapiens); 200 nM in data set [7] (Homo sapiens). For the same molecule, the EC50 in data set [2] (Homo sapiens, 144 h) is greater than 31200 nM; in data set [3] (Homo sapiens, 144 h) it was 550 nM; in data set [4] (Homo sapiens, 144 h), 700 nM; in [5] (Homo sapiens, DU-145, 144 h) it was 510 nM; in data set [6] (Homo sapiens, 144 h), 1100 nM; in [7] (Homo sapiens, PC-3, 144 h) it was 200 nM.
